According to PMC12040169 (PLOS Biology, 2025):

Assay: in vitro
Conditions: human, hela cells
In the case of `O=C(NCCc1ccccc1)c1ccc(N2CCN(C(=O)c3ccccc3C(F)(F)F)CC2)nn1` [CBK153212], the viability at 28.5 h, 10 µM is reported as 83.2%.

Same assay, conditions: human, hela cells, % viability
`COc1cccc2cc(C(=O)NCC3COc4ccccc4O3)oc12` (stereo not shown) [CBK149791] gave a viability at 28.5 h, 10 µM of 109%. Work on `COc1cccc2cc(C(=O)NCCCSC)oc12` [CBK149793] yielded a viability at 28.5 h, 10 µM of 99.6%. In the case of `COc1cccc2cc(C(=O)NCc3cccs3)oc12` [CBK149799], the viability at 28.5 h, 10 µM is reported as 67.9%. With `COc1cccc2cc(C(=O)NCc3cccc4ccccc34)oc12` [CBK149800] the viability at 28.5 h, 10 µM was 78.6%. Molecule `COc1cccc2cc(C(=O)NC3CC3)oc12` [CBK149813] has a viability at 28.5 h, 10 µM of 97.8%. `CCOC(=O)CCNC(=O)c1cc2cccc(OC)c2o1` [CBK149816] showed a viability at 28.5 h, 10 µM of 88.1%. `COc1cccc2cc(C(=O)Nc3ccc4[nH]ccc4c3)oc12` [CBK149819] showed a viability at 28.5 h, 10 µM of 91.5%. In the case of `COc1ccc(OCCNC(=O)C2(c3ccc(OC)cc3)CC2)cc1` [CBK149821], the viability at 28.5 h, 10 µM is reported as 91.8%. `COc1ccc(C2(C(=O)NCCCN3CCN(C)CC3)CC2)cc1` [CBK149822] gave a viability at 28.5 h, 10 µM of 101%. Work on `COc1ccc(C2(C(=O)NCc3ccc(OC(F)(F)F)cc3)CC2)cc1` [CBK149823] yielded a viability at 28.5 h, 10 µM of 117%. In the case of `COc1ccc(C2(C(=O)NCc3ccc(Cl)c(Cl)c3)CC2)cc1` [CBK149827], the viability at 28.5 h, 10 µM is reported as 98.7%. `COc1ccc(C2(C(=O)NCc3cccs3)CC2)cc1` [CBK149831] gave a viability at 28.5 h, 10 µM of 106%. `COc1ccc(C2(C(=O)NCCc3ccc(O)cc3)CC2)cc1` [CBK149833] showed a viability at 28.5 h, 10 µM of 101%. `O=C(Nc1ccc(C(F)(F)F)cc1)N1CCC(n2c(=O)[nH]c3ccccc32)CC1` [CBK149847] gave a viability at 28.5 h, 10 µM of 83.1%. For `O=C(Nc1ccc(Cl)cc1)N1CCC(n2c(=O)[nH]c3ccccc32)CC1` [CBK149850], the viability at 28.5 h, 10 µM was 98.5%. Molecule `COc1cc(OC)c(NC(=O)N2CCC(n3c(=O)[nH]c4ccccc43)CC2)cc1Cl` [CBK149851] has a viability at 28.5 h, 10 µM of 91.4%. `O=C(Nc1cccc(Cl)c1Cl)N1CCC(n2c(=O)[nH]c3ccccc32)CC1` [CBK149856] showed a viability at 28.5 h, 10 µM of 94.6%. Molecule `CCOC(=O)N1CCC(n2c(=O)[nH]c3ccccc32)CC1` [CBK149867] has a viability at 28.5 h, 10 µM of 79.6%. With `COc1ccc(OC(=O)N2CCC(n3c(=O)[nH]c4ccccc43)CC2)cc1` [CBK149868] the viability at 28.5 h, 10 µM was 102%. In the case of `CC(=O)NCc1cccc(-c2cc(C(=O)Nc3ccc4c(c3)OCCO4)cnc2O)c1` [CBK149871T], the viability at 28.5 h, 10 µM is reported as 91.6%. Molecule `c1ccc(CC(Cc2nc3ccccc3[nH]2)c2nc3ccccc3[nH]2)cc1` (stereo not shown) [CBK150452] has a viability at 28.5 h, 10 µM of 107%. Work on `O=c1nc(-c2ccccc2Cl)oc2ccccc12` [CBK152263] yielded a viability at 28.5 h, 10 µM of 89.9%. Molecule `O=c1nc(-c2ccco2)oc2ccccc12` [CBK152421] has a viability at 28.5 h, 10 µM of 112%. `Cc1cccc2c(=O)nc(-c3ccccc3Cl)oc12` [CBK152422] showed a viability at 28.5 h, 10 µM of 106%. Work on `O=C(Nc1sc2c(c1C(=O)O)CCC2)c1cccs1` [CBK152437] yielded a viability at 28.5 h, 10 µM of 95.2%. With `COc1cccc(-c2ccc3c(c2)[nH]c(=O)n3C2CCN(C(=O)c3ccc(C)c(OC)c3)CC2)c1` [CBK153141] the viability at 28.5 h, 10 µM was 102%. `Cc1ccc(CNC(=O)Cn2nnc(-c3ccc(CNCC(F)(F)F)cc3)n2)cc1` [CBK153204T] gave a viability at 28.5 h, 10 µM of 116%. Work on `O=C(NCC1CC1)c1ccc(N2CCN(C(=O)c3ccccc3C(F)(F)F)CC2)nn1` [CBK153220] yielded a viability at 28.5 h, 10 µM of 111%. In the case of `O=C1NC(=O)C(CC(=O)N2CCC3(CCCNC3)C2)N1` (stereo not shown) [CBK153232C], the viability at 28.5 h, 10 µM is reported as 79.2%. In the case of `O=C(c1cncnc1)N1CCC2(CCCNC2)C1` (stereo not shown) [CBK153237C], the viability at 28.5 h, 10 µM is reported as 89.7%. Molecule `COC(=O)CCC(=O)Nc1snnc1-c1ccc(Cl)cc1` [CBK153241] has a viability at 28.5 h, 10 µM of 99.3%. In the case of `O=C(CC1CCCCC1)Nc1snnc1-c1ccc(Cl)cc1` [CBK153245], the viability at 28.5 h, 10 µM is reported as 114%. `O=C(Nc1snnc1-c1ccc(Cl)cc1)c1ccc(OC(F)(F)F)cc1` [CBK153247] showed a viability at 28.5 h, 10 µM of 70.5%. With `O=C(OCc1ccccc1)N1CCC(C2OCc3cc(-c4ccc(C(=O)N5CCCC5)cc4)ccc3O2)CC1` (stereo not shown) [CBK153260] the viability at 28.5 h, 10 µM was 108%. In the case of `O=C(OCc1ccccc1)N1CCC(C2OCc3cc(-c4ccc(C(=O)N5CCCCC5)cc4)ccc3O2)CC1` (stereo not shown) [CBK153262], the viability at 28.5 h, 10 µM is reported as 93.8%. For `O=S(=O)(c1ccccc1)N1Cc2cccc3[nH]cc(c23)C1` [CBK153275], the viability at 28.5 h, 10 µM was 102%. `CC1(C)CC(=O)C=C(C(=O)NCc2c(F)cccc2F)O1` [CBK153287] showed a viability at 28.5 h, 10 µM of 91.2%. For `CSCCCNC(=O)c1ccc2nc[nH]c2c1` [CBK153314], the viability at 28.5 h, 10 µM was 116%. With `O=C(NCc1c(F)cccc1F)c1ccc2nc[nH]c2c1` [CBK153315] the viability at 28.5 h, 10 µM was 83%. With `O=C(NCc1cccs1)c1ccc2nc[nH]c2c1` [CBK153320] the viability at 28.5 h, 10 µM was 92.1%. With `Cc1csc(C(C)NC(=O)c2cccnc2NCc2ccc3c(c2)OCO3)n1` (stereo not shown) [CBK153425] the viability at 28.5 h, 10 µM was 108%. Molecule `O=C(NCc1ccc([N+](=O)[O-])cc1)c1cccnc1NCc1ccc2c(c1)OCO2` [CBK153436] has a viability at 28.5 h, 10 µM of 98.6%. Molecule `CCOC(=O)CCCCSc1c(CC)c(C)nc2ccccc12` [CBK153458T] has a viability at 28.5 h, 10 µM of 96%. Work on `CCc1c(C)nc2ccccc2c1SC[C@H](NC(C)=O)C(=O)O` [CBK153459T] yielded a viability at 28.5 h, 10 µM of 99.2%. `Cc1ccc(S(=O)(=O)Nc2ccc3[nH]ccc3c2)cc1` [CBK153519] gave a viability at 28.5 h, 10 µM of 92.5%. Molecule `O=S(=O)(Nc1cccc2[nH]ccc12)c1ccc(F)cc1` [CBK153522] has a viability at 28.5 h, 10 µM of 60.9%. Molecule `O=S(=O)(Nc1cccc2[nH]ccc12)c1sc(Cl)cc1Br` [CBK153552] has a viability at 28.5 h, 10 µM of 69%. `O=S(=O)(Nc1cccc2cc[nH]c12)c1cc(Cl)ccc1Cl` [CBK153581] gave a viability at 28.5 h, 10 µM of 84.6%. In the case of `O=S(=O)(CC(F)(F)F)Nc1cccc2cc[nH]c12` [CBK153585], the viability at 28.5 h, 10 µM is reported as 99.5%. `O=S(=O)(Nc1cccc2cc[nH]c12)c1ccc(F)cc1F` [CBK153586] gave a viability at 28.5 h, 10 µM of 85.3%. For `N#CCCCN1CCC(Oc2nccnc2OCc2c(F)cccc2Cl)CC1` [CBK153630], the viability at 28.5 h, 10 µM was 102%. With `N#CCCCN1CCC(Oc2nccnc2OCc2ccccc2C(F)(F)F)CC1` [CBK153636] the viability at 28.5 h, 10 µM was 102%. `N#CCCCN1CCC(Oc2nccnc2OCc2cccc(C(F)(F)F)c2F)CC1` [CBK153646] showed a viability at 28.5 h, 10 µM of 100%. `CN(C)C(=O)c1ccc(Cn2ccnc(N3CCC(Sc4ccccc4)CC3)c2=O)cc1` [CBK153651] gave a viability at 28.5 h, 10 µM of 107%. `CN(C)C(=O)Cc1ccc(Cn2ccnc(N3CCC(Sc4ccccc4)CC3)c2=O)cc1` [CBK153652] showed a viability at 28.5 h, 10 µM of 112%. `N#Cc1ccc(Cn2ccnc(N3CCC(Sc4ccccc4)CC3)c2=O)cc1` [CBK153653] showed a viability at 28.5 h, 10 µM of 98.2%. For `O=c1c(N2CCC(Sc3ccccc3)CC2)nccn1Cc1ccc([N+](=O)[O-])cc1` [CBK153654], the viability at 28.5 h, 10 µM was 108%. `O=c1c(N2CCC(Sc3ccccc3)CC2)nccn1Cc1ccc(-n2cncn2)cc1` [CBK153655] gave a viability at 28.5 h, 10 µM of 90.9%. `CCOC(=O)c1c(C)nc2ccccc2c1O` [CBK153666] gave a viability at 28.5 h, 10 µM of 110%. `O=C(c1cnoc1-c1ccc(F)cc1)N1CCCC1` [CBK153707] gave a viability at 28.5 h, 10 µM of 97.9%. Work on `O=C(NCc1cccc(C(F)(F)F)c1)c1cnoc1-c1ccc(Br)cc1` [CBK153718] yielded a viability at 28.5 h, 10 µM of 96.9%. For `CS(=O)(=O)c1ccc(Cn2ccnc(N3CCN(C(=O)Cc4cccs4)CC3)c2=O)cc1` [CBK153773], the viability at 28.5 h, 10 µM was 89.9%. In the case of `CS(=O)(=O)c1ccc(Cn2ccnc(N3CCN(C(=O)c4ccc5occc5c4)CC3)c2=O)cc1` [CBK153777], the viability at 28.5 h, 10 µM is reported as 90.8%.
